Laboratory results reported in US20060073121A1, “Spray formulation for pungency enhancement in Capsicum” (priority 2004, published 2006).

Tested on: Capsicum frutescens Mill
Experiment: Spray of abiotic elicitors to flowers of field-grown plants; HPLC of phenyl propanoid intermediates and capsaicinoids in harvested fruits
Type: in vivo
From the text: The seedlings of Capsicum frutescens Mill were raised in soil bed. The seeds of C. frutescens were collected from wild from BR Hills, […]. The 2 months old seedling plants were transplanted to the soil and grown under controlled conditions to avoid cross-pollination after the onset of flowering. The plants were established well 2 months after transplantation and started to flower by 90 days with proper agronomic practices with regard to irrigation, fertilizer application, weeding and care from major pests and diseases. The abiotic elicitor (Methyl Jasmonate) was purchased from Duchefa Pvt.LTD. Methyl Jasmonate stock solution was prepared and later used at different concentrations (1 mM, 2.5 mM and 5 mM) for spraying to the whole plant containing flowers, completely opened flowers, and braches containing flowers. The flowers of C. frutescens were sprayed with water, which was taken as control. […] The extracted samples were centrifuged at 4000 rpm for 10 minutes. The samples were subjected to High Performance Liquid Chromatography for quantification of phenyl proponoid intermediates and major Capsaicinoids. […] The detection was at 236 nm and flow rate was maintained at 1 ml/min. […] The reagent used was of HPLC grade. The intermediates of phenyl proponoid pathway (Phenylalanine, Cinnamic acid, Coumaric acid, Caffeic acid, Ferulic acid and Vanillylamine) and two major Capsaicinoids (Capsaicin and Dihydrocapsaicin) were purchased from Sigma Co. […] Standard deviation of samples was calculated according to Tukey's method. The seedlings of Capsicum frutescens Mill were raised in soil bed. The seeds of C. frutescens were collected from BR. Hills, […]. The 2 months old seedling plants were transplanted to the soil and grown under controlled conditions to avoid cross-pollination after the onset of flowering. The plants were established well two months after transplantation and started to flower by 90 days with proper agronomic practices with regard to irrigation, fertilizer application, weeding and care from major pests and diseases. […] USA. […] The flowers of C. frutescens were sprayed with water, which was taken as control. […] The extracted samples were centrifuged at 4000 rpm for 10 minutes. The samples were subjected to High Performance Liquid Chromatography for quantification of phenyl proponoid intermediates and major Capsaicinoids. […] The detection was at 236nm and flow rate was maintained at 1 ml/min. […] The reagent used was of HPLC grade. The intermediates of phenyl propanoid pathway (Phenylalanine, Cinnamic acid, Coumaric acid, Caffeic acid, Ferulic acid and Vanillylamine) and two major Capsaicinoids (Capsaicin and Dihydrocapsaicin) were purchased from Sigma Co. […] Standard deviation of samples was calculated according to Tukey's method.

[1] = fruits 25 days after anthesis, 1 mM sprayed
[2] = fruits 25 days after anthesis, 2.5 mM sprayed
[3] = fruits 25 days after anthesis, 5 mM sprayed
[4] = fruits 30 days after anthesis, 1 mM sprayed
[5] = fruits 30 days after anthesis, 2.5 mM sprayed
[6] = fruits 30 days after anthesis, 5 mM sprayed
[7] = fruits 35 days after anthesis, 1 mM sprayed
[8] = fruits 35 days after anthesis, 2.5 mM sprayed
[9] = fruits 35 days after anthesis, 5 mM sprayed
[10] = fruits 40 days after anthesis, 1 mM sprayed
[11] = fruits 40 days after anthesis, 2.5 mM sprayed
[12] = fruits 40 days after anthesis, 5 mM sprayed

O=C([O-])c1ccccc1O.[Na+] [Salicylic Acid sodium salt, Salicylic acid sodium salt]
Caffeic Acid level [1]: 21 ± 1.0 µM | Capsaicin level [1]: 16 ± 08 µM | Cinnamic Acid level [1]: 3.4 ± 0.9 µM | Coumaric Acid level [1]: 12.0 ± 1.2 µM | Dihydrocapsaicin level [1]: 5 ± 0.7 µM | Ferulic Acid level [1]: 31 ± 1.2 µM | Phenylalanine level [1]: 378 ± 8.2 µM | Vanillylamine level [1]: 48 ± 1.4 µM | Caffeic Acid level [2]: 25 ± 1.1 µM | Capsaicin level [2]: 17 ± 1.1 µM | Cinnamic Acid level [2]: 3.9 ± 0.7 µM | Coumaric Acid level [2]: 15 ± 1.4 µM | Dihydrocapsaicin level [2]: 5.5 ± 0.6 µM | Ferulic Acid level [2]: 32 ± 1.4 µM | Phenylalanine level [2]: 389 ± 9.2 µM | Vanillylamine level [2]: 49 ± 1.8 µM | Caffeic Acid level [3]: 28 ± 1.2 µM | Capsaicin level [3]: 16 ± 1.1 µM | Cinnamic Acid level [3]: 3.5 ± 0.6 µM | Coumaric Acid level [3]: 14 ± 1.2 µM | Dihydrocapsaicin level [3]: 6 ± 0.7 µM | Ferulic Acid level [3]: 34 ± 1.9 µM | Phenylalanine level [3]: 379 ± 10.0 µM | Vanillylamine level [3]: 47 ± 2.1 µM | Caffeic Acid level [4]: 28 ± 1.0 µM | Capsaicin level [4]: 35 ± 2.4 µM | Cinnamic Acid level [4]: 4.1 ± 1.1 µM | Coumaric Acid level [4]: 12 ± 1.1 µM | Dihydrocapsaicin level [4]: 11 ± 1.1 µM | Ferulic Acid level [4]: 35 ± 4.1 µM | Phenylalanine level [4]: 514 ± 12.2 µM | Vanillylamine level [4]: 60 ± 1.9 µM | Caffeic Acid level [5]: 30 ± 1.5 µM | Capsaicin level [5]: 44 ± 1.1 µM | Cinnamic Acid level [5]: 4.9 ± 1.5 µM | Coumaric Acid level [5]: 18 ± 1.2 µM | Dihydrocapsaicin level [5]: 12 ± 0.1 µM | Ferulic Acid level [5]: 35 ± 3.9 µM | Phenylalanine level [5]: 519 ± 8.7 µM | Vanillylamine level [5]: 67 ± 2.1 µM | Caffeic Acid level [6]: 32 ± 1.1 µM | Capsaicin level [6]: 42 ± 2.8 µM | Cinnamic Acid level [6]: 4.5 ± 1.1 µM | Coumaric Acid level [6]: 15 ± 1.2 µM | Dihydrocapsaicin level [6]: 10 ± 0.6 µM | Ferulic Acid level [6]: 38 ± 3.4 µM | Phenylalanine level [6]: 528 ± 7.4 µM | Vanillylamine level [6]: 65 ± 4.2 µM | Caffeic Acid level [7]: 29 ± 1.0 µM | Capsaicin level [7]: 38 ± 2.8 µM | Cinnamic Acid level [7]: 18 ± 1.0 µM | Coumaric Acid level [7]: 24 ± 1.2 µM | Dihydrocapsaicin level [7]: 15 ± 1.0 µM | Ferulic Acid level [7]: 64 ± 5 µM | Phenylalanine level [7]: 778 ± 5.9 µM | Vanillylamine level [7]: 68 ± 1.9 µM | Caffeic Acid level [8]: 42 ± 1.1 µM | Cinnamic Acid level [8]: 25 ± 1.1 µM | Coumaric Acid level [8]: 30 ± 1.5 µM | Dihydrocapsaicin level [8]: 16 ± 1.0 µM | Ferulic Acid level [8]: 69 ± 6.8 µM | Phenylalanine level [8]: 789 ± 11 µM | Vanillylamine level [8]: 77 ± 2.8 µM | Capsaicin level (fruits 35 days after anthesis, 2.5 mM sprayed, sodium salt): 39 ± 2.8 µM | Caffeic Acid level [9]: 32 ± 1.0 µM | Capsaicin level [9]: 36 ± 2.1 µM | Cinnamic Acid level [9]: 24 ± 1.1 µM | Coumaric Acid level [9]: 21 ± 1.1 µM | Dihydrocapsaicin level [9]: 15 ± 0.9 µM | Ferulic Acid level [9]: 65 ± 4.5 µM | Phenylalanine level [9]: 891 ± 8.9 µM | Vanillylamine level [9]: 73 ± 3.6 µM | Caffeic Acid level [10]: 29 ± 1.1 µM | Capsaicin level [10]: 31 ± 2.1 µM | Cinnamic Acid level [10]: 15 ± 1.0 µM | Coumaric Acid level [10]: 21 ± 1.1 µM | Dihydrocapsaicin level [10]: 14 ± 1.0 µM | Ferulic Acid level [10]: 62 ± 5 µM | Phenylalanine level [10]: 532 ± 8.4 µM | Vanillylamine level [10]: 64 ± 5.8 µM | Caffeic Acid level [11]: 35 ± 1.0 µM | Capsaicin level [11]: 34 ± 2.8 µM | Cinnamic Acid level [11]: 23 ± 1.1 µM | Coumaric Acid level [11]: 29 ± 1.4 µM | Dihydrocapsaicin level [11]: 15 ± 1.0 µM | Ferulic Acid level [11]: 65 ± 6 µM | Phenylalanine level [11]: 549 ± 9.2 µM | Vanillylamine level [11]: 68 ± 4.8 µM | Caffeic Acid level [12]: 34 ± 1.1 µM | Capsaicin level [12]: 38 ± 3.4 µM | Cinnamic Acid level [12]: 20 ± 1.0 µM | Coumaric Acid level [12]: 24 ± 1.5 µM | Dihydrocapsaicin level [12]: 14 ± 1.1 µM | Ferulic Acid level [12]: 67 ± 6 µM | Phenylalanine level [12]: 547 ± 7.4 µM | Vanillylamine level [12]: 65 ± 6.1 µM
